Results reported in ChEMBL document CHEMBL1201862, “PubChem BioAssay data set” (2004).
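Assay format: 96-well plates, 48-hour exposure. Here, GI50 denotes the concentration required for 50% inhibition of growth.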 Active and inactive are the calls of the source. No stated cut-off is given here; in the data, active = GI50 up to about 1.1 µM and inactive = higher.

Key:
Assay in all cases: NCI-60 cell line screen, 48 h
[1] = test system: UACC-257
[2] = test system: Malme-3M
[3] = test system: DLD-1
[4] = test system: SK-MEL-5
[5] = test system: SF-539
[6] = test system: SNB-19
[7] = test system: SW-620
[8] = test system: NCI-H522
[9] = test system: LOX IMVI
[10] = test system: CCRF-CEM
[11] = test system: SK-MEL-2
[12] = test system: A498
[13] = test system: NCI-H460
[14] = test system: A549
[15] = test system: HCT-116
[16] = test system: M19-MEL
[17] = test system: KM12
[18] = test system: OVCAR-4
[19] = test system: SNB-78
[20] = test system: HCT-15
[21] = test system: OVCAR-5
[22] = test system: SF-268
[23] = test system: HOP-18
[24] = test system: DMS-273
[25] = test system: HOP-92
[26] = test system: HOP-62
[27] = test system: KM-20L2
[28] = test system: MOLT-4
[29] = test system: OVCAR-8
[30] = test system: COLO 205
[31] = test system: HT-29
[32] = test system: K562
[33] = test system: UACC-62
[34] = test system: SK-MEL-28
[35] = test system: NCI-H23
[36] = test system: SF-295
[37] = test system: XF498
[38] = test system: RXF 393
[39] = test system: HCC 2998
[40] = test system: RPMI-8226
[41] = test system: U-251
[42] = test system: OVCAR-3
[43] = test system: SK-OV-3
[44] = test system: HL-60
[45] = test system: DMS-114
[46] = test system: MCF7
[47] = test system: NCI/ADR-RES
[48] = test system: EKVX
[49] = test system: IGROV-1
[50] = test system: SN12C
[51] = test system: CAKI-1
[52] = test system: UO-31
[53] = test system: NCI-H226
[54] = test system: SNB-75

CC(C)(C)c1ccc2c(c1)OP1(Oc3cccc4cccnc34)(O2)Oc2ccc(C(C)(C)C)cc2O1
GI50 [1]: 2.54 µM (inactive)
GI50 [2]: 5.28 µM (inactive)
GI50 [3]: 3.92 µM (inactive)
GI50 [4]: 3.27 µM (inactive)
GI50 [5]: 10.4 µM (inactive)
GI50 [6]: 14.2 µM (inactive)
GI50 [7]: 2.25 µM (inactive)
GI50 [8]: 4.9 µM (inactive)
GI50 [9]: 3.68 µM (inactive)
GI50 [10]: 0.701 µM (active)
GI50 [11]: 7.85 µM (inactive)
GI50 [12]: 9.31 µM (inactive)
GI50 [13]: 3.04 µM (inactive)
GI50 [14]: 5.58 µM (inactive)
GI50 [15]: 3.13 µM (inactive)
GI50 [16]: 10.5 µM (inactive)
GI50 [17]: 6.73 µM (inactive)
GI50 [18]: 2.48 µM (inactive)
GI50 [19]: 34.4 µM (inactive)
GI50 [20]: 2.86 µM
GI50 [21]: 4.17 µM (inactive)
GI50 [22]: 6.56 µM (inactive)
GI50 [23]: 20.4 µM (inactive)
GI50 [24]: 3.75 µM (inactive)
GI50 [25]: 4.61 µM (inactive)
GI50 [26]: 22.8 µM (inactive)
GI50 [27]: 4.05 µM (inactive)
GI50 [28]: 0.57 µM (active)
GI50 [29]: 3.92 µM (inactive)
GI50 [30]: 2.85 µM (inactive)
GI50 [31]: 3.89 µM (inactive)
GI50 [32]: 2.43 µM (inactive)
GI50 [33]: 3.26 µM (inactive)
GI50 [34]: 15.7 µM (inactive)
GI50 [35]: 3.05 µM (inactive)
GI50 [36]: 4.19 µM (inactive)
GI50 [37]: 2.72 µM (inactive)
GI50 [38]: 3.37 µM (inactive)
GI50 [39]: 9.89 µM (inactive)
GI50 [40]: 0.597 µM (active)
GI50 [41]: 7 µM (inactive)
GI50 [42]: 1.79 µM (inactive)
GI50 [43]: 48.2 µM (inactive)
GI50 [44]: 1.76 µM (inactive)
GI50 [45]: 0.71 µM (active)
GI50 [46]: 0.655 µM (active)
GI50 [47]: 2.96 µM (inactive)
GI50 [48]: 3.08 µM (inactive)
GI50 [49]: 3.88 µM (inactive)
GI50 [50]: 12.8 µM (inactive)
GI50 [51]: 12.2 µM (inactive)
GI50 [52]: 4.42 µM (inactive)
GI50 [53]: 8.49 µM (inactive)
GI50 [54]: 15.7 µM (inactive)
